Laboratory results as given in patent publication US7678583B2, “Method of lysis of erythrocytes” (Immunotech, S.A., priority 2000, dated 2010).

What was measured:
[1] = Experiment 2: conversion of ammonium carbamate into ammonium carbonate, precipitation in 85% of acetone; format: biochemical
erythrocytes = assay: Experiment 3: speed of lysis with carbonic anhydrases from different sources in lysis reagent according to Example 1; format: cell-based; details: Example 1 reagent, carbonic anhydrase replaced by preparation at 5000 W-A U/l; OD at 700 nm; time to minimum level
Procedure: In a lysis reagent according to Example 1, the component carbonic anhydrase at 50,000 W-A U/I was replaced by preparations of carbonic anhydrase as indicated in the table, each at 5000 W-A U/I. The lysis process was tracked spectrophotometrically (measurement of the OD at 700 nm). The duration of the lysis is determined by the time necessary to achieve a minimum level.

Molecule | Speed of lysis at 5000 W-A U/l (erythrocytes) | further results
N.NC(=O)O [100 mM NH2CO2NH4, ammonium carbamate, reference compound] |  | Duration before complete precipitation in 85% of acetone ([1]; carbonate precipitates and not the carbamate): 240 min
CAI, C-4396: carbonic anhydrase I preparation, Sigma, human | 5.06 min | 
CAI, C-5290: carbonic anhydrase I preparation, Sigma, human | 3.24 min | 
CAII, C-2522: carbonic anhydrase II preparation, Sigma, bovine | 8.51 min | 
carbonic anhydrase |  | catalysis of the conversion carbonate / carbamate+H2O (in words) [1]: also catalyses the conversion carbonate
